In PubChem BioAssay (NCI):
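Five compound concentrations were applied to cells in 96-well plates for 48 hours; endpoints were derived by simple linear interpolation of the resulting dose-response curve. At the GI50, growth is halved. TGI marks complete inhibition of growth.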

How the values were obtained:
Experiment in all cases: DTP human tumour cell line panel, 48 h
786-0 renal = test system: 786-0 renal
A498 renal = test system: A498 renal
A549 NSCLC = test system: A549 NSCLC
ACHN renal = test system: ACHN renal
BT-549 breast = test system: BT-549 breast
CAKI-1 renal = test system: CAKI-1 renal
CCRF-CEM leukemia = test system: CCRF-CEM leukemia
COLO 205 colon = test system: COLO 205 colon
DU-145 prostate = test system: DU-145 prostate
EKVX NSCLC = test system: EKVX NSCLC
HCC-2998 colon = test system: HCC-2998 colon
HCT-116 colon = test system: HCT-116 colon
HCT-15 colon = test system: HCT-15 colon
HL-60(TB) leukemia = test system: HL-60(TB) leukemia
HOP-62 NSCLC = test system: HOP-62 NSCLC
HOP-92 NSCLC = test system: HOP-92 NSCLC
HS 578T breast = test system: HS 578T breast
HT29 colon = test system: HT29 colon
IGROV1 ovarian = test system: IGROV1 ovarian
K-562 leukemia = test system: K-562 leukemia
KM12 colon = test system: KM12 colon
LOX IMVI melanoma = test system: LOX IMVI melanoma
M14 melanoma = test system: M14 melanoma
MCF7 breast = test system: MCF7 breast
MDA-MB-231 breast = test system: MDA-MB-231 breast
MDA-MB-435 = test system: MDA-MB-435
MOLT-4 leukemia = test system: MOLT-4 leukemia
NCI-H23 lung = test system: NCI-H23 lung
NCI-H460 lung = test system: NCI-H460 lung
NCI-H522 lung = test system: NCI-H522 lung
NCI/ADR-RES ovarian = test system: NCI/ADR-RES ovarian
OVCAR-3 ovarian = test system: OVCAR-3 ovarian
OVCAR-5 ovarian = test system: OVCAR-5 ovarian
OVCAR-8 ovarian = test system: OVCAR-8 ovarian
PC-3 prostate = test system: PC-3 prostate
RPMI-8226 leukemia = test system: RPMI-8226 leukemia
RXF 393 renal = test system: RXF 393 renal
SF-268 CNS = test system: SF-268 CNS
SF-295 CNS = test system: SF-295 CNS
SF-539 CNS = test system: SF-539 CNS
SK-MEL-2 melanoma = test system: SK-MEL-2 melanoma
SK-MEL-28 melanoma = test system: SK-MEL-28 melanoma
SK-MEL-5 melanoma = test system: SK-MEL-5 melanoma
SK-OV-3 ovarian = test system: SK-OV-3 ovarian
SN12C renal = test system: SN12C renal
SNB-19 CNS = test system: SNB-19 CNS
SNB-75 CNS = test system: SNB-75 CNS
SR leukemia = test system: SR leukemia
SW-620 colon = test system: SW-620 colon
T-47D breast = test system: T-47D breast
TK-10 renal = test system: TK-10 renal
U251 CNS = test system: U251 CNS
UACC-257 melanoma = test system: UACC-257 melanoma
UACC-62 melanoma = test system: UACC-62 melanoma
UO-31 renal = test system: UO-31 renal

For `CC(O)c1cccc(NCc2c3ccccc3c(=O)n3c2oc2ccccc23)c1` (stereo not given), the GI50 (786-0 renal) was 4.18 µM, the TGI (786-0 renal) was 19.2 µM and the GI50 (A498 renal) was 1.61 µM. It also gave a TGI (A498 renal) of 4.93 µM, a GI50 (A549 NSCLC) of 2.33 µM and a TGI (A549 NSCLC) of 24 µM. The GI50 (ACHN renal) was 3.51 µM, the TGI (ACHN renal) was 13.5 µM and the GI50 (BT-549 breast) was 3.95 µM. The TGI (BT-549 breast) was 14.7 µM, the GI50 (CAKI-1 renal) was 7.29 µM and the TGI (CAKI-1 renal) was over 100 µM. For the same compound, the GI50 (CCRF-CEM leukemia) was 3.34 µM, the TGI (CCRF-CEM leukemia) was over 100 µM and the GI50 (COLO 205 colon) was over 100 µM. The TGI (COLO 205 colon) was over 100 µM, the GI50 (DU-145 prostate) was 5.46 µM and the TGI (DU-145 prostate) was over 100 µM. The GI50 (EKVX NSCLC) was 3.87 µM, the TGI (EKVX NSCLC) was 19.3 µM and the GI50 (HCC-2998 colon) was 11.3 µM. It also gave a TGI (HCC-2998 colon) of 57.2 µM, a GI50 (HCT-116 colon) of 3.13 µM and a TGI (HCT-116 colon) of 14.4 µM. For the same compound, the GI50 (HCT-15 colon) was 5.56 µM, the TGI (HCT-15 colon) was 28.8 µM and the GI50 (HL-60(TB) leukemia) was over 100 µM. For the same compound, the TGI (HL-60(TB) leukemia) was over 100 µM, the GI50 (HOP-62 NSCLC) was 3.01 µM and the TGI (HOP-62 NSCLC) was 13.6 µM. It also gave a GI50 (HOP-92 NSCLC) of 5.4 µM, a TGI (HOP-92 NSCLC) of 44.3 µM and a GI50 (HS 578T breast) of 4.43 µM. It also gave a TGI (HS 578T breast) of 57.4 µM, a GI50 (HT29 colon) of 35.6 µM and a TGI (HT29 colon) of over 100 µM. It also gave a GI50 (IGROV1 ovarian) of 1.32 µM, a TGI (IGROV1 ovarian) of 27 µM and a GI50 (K-562 leukemia) of over 100 µM. It also gave a TGI (K-562 leukemia) of over 100 µM, a GI50 (KM12 colon) of 13.4 µM and a TGI (KM12 colon) of over 100 µM. For the same compound, the GI50 (LOX IMVI melanoma) was 8.02 µM, the TGI (LOX IMVI melanoma) was 36 µM and the GI50 (M14 melanoma) was 4.5 µM. The TGI (M14 melanoma) was 25.2 µM, the GI50 (MCF7 breast) was over 100 µM and the TGI (MCF7 breast) was over 100 µM. The GI50 (MDA-MB-231 breast) was 13.3 µM, the TGI (MDA-MB-231 breast) was 47.9 µM and the GI50 (MDA-MB-435) was 18.4 µM. The TGI (MDA-MB-435) was over 100 µM, the GI50 (MOLT-4 leukemia) was 5.03 µM and the TGI (MOLT-4 leukemia) was over 100 µM. The GI50 (NCI-H23 lung) was 9.41 µM, the TGI (NCI-H23 lung) was 26.9 µM and the GI50 (NCI-H460 lung) was over 100 µM. For the same compound, the TGI (NCI-H460 lung) was over 100 µM, the GI50 (NCI-H522 lung) was 5.55 µM and the TGI (NCI-H522 lung) was 45.1 µM. For the same compound, the GI50 (NCI/ADR-RES ovarian) was 11.8 µM, the TGI (NCI/ADR-RES ovarian) was 28.5 µM and the GI50 (OVCAR-3 ovarian) was 9.25 µM. For the same compound, the TGI (OVCAR-3 ovarian) was 85.2 µM, the GI50 (OVCAR-5 ovarian) was 18.3 µM and the TGI (OVCAR-5 ovarian) was over 100 µM. The GI50 (OVCAR-8 ovarian) was 8.04 µM, the TGI (OVCAR-8 ovarian) was 36.2 µM and the GI50 (PC-3 prostate) was 7.11 µM. It also gave a TGI (PC-3 prostate) of over 100 µM, a GI50 (RPMI-8226 leukemia) of 65 µM and a TGI (RPMI-8226 leukemia) of over 100 µM. The GI50 (RXF 393 renal) was 22.5 µM, the TGI (RXF 393 renal) was 67.8 µM and the GI50 (SF-268 CNS) was over 100 µM. For the same compound, the TGI (SF-268 CNS) was over 100 µM, the GI50 (SF-295 CNS) was 2.43 µM and the TGI (SF-295 CNS) was 14.5 µM. It also gave a GI50 (SF-539 CNS) of 1.37 µM, a TGI (SF-539 CNS) of 3.43 µM and a GI50 (SK-MEL-2 melanoma) of 6.31 µM. It also gave a TGI (SK-MEL-2 melanoma) of 46.9 µM, a GI50 (SK-MEL-28 melanoma) of 6 µM and a TGI (SK-MEL-28 melanoma) of 35.6 µM. For the same compound, the GI50 (SK-MEL-5 melanoma) was 4.87 µM, the TGI (SK-MEL-5 melanoma) was 31.6 µM and the GI50 (SK-OV-3 ovarian) was 4.42 µM. For the same compound, the TGI (SK-OV-3 ovarian) was 30.6 µM, the GI50 (SN12C renal) was 15.5 µM and the TGI (SN12C renal) was over 100 µM. The GI50 (SNB-19 CNS) was 16.4 µM, the TGI (SNB-19 CNS) was 88.3 µM and the GI50 (SNB-75 CNS) was 1.75 µM. For the same compound, the TGI (SNB-75 CNS) was 5.76 µM, the GI50 (SR leukemia) was 3.39 µM and the TGI (SR leukemia) was 12.1 µM. The GI50 (SW-620 colon) was 13.6 µM, the TGI (SW-620 colon) was over 100 µM and the GI50 (T-47D breast) was 14.4 µM. For the same compound, the TGI (T-47D breast) was 64.6 µM, the GI50 (TK-10 renal) was 5.7 µM and the TGI (TK-10 renal) was 28 µM. For the same compound, the GI50 (U251 CNS) was 9.92 µM, the TGI (U251 CNS) was 21.5 µM and the GI50 (UACC-257 melanoma) was 8.24 µM. It also gave a TGI (UACC-257 melanoma) of 47.7 µM, a GI50 (UACC-62 melanoma) of 5.45 µM and a TGI (UACC-62 melanoma) of 22.3 µM. For the same compound, the GI50 (UO-31 renal) was 3.58 µM and the TGI (UO-31 renal) was 28.1 µM.
